Measurements published in patent US20250083204A1, “CUPRIAVIDUS METALLIDURANS CML2, ITS PREPARATION, AND ITS BIOR[…] FOR HEAVY METAL-CONTAMINATED ENVIRONMENT” (priority 2023, published 2025).
Several values for one entry are separate records, joined by “and”; a condition that tells them apart may be missing. Identical values can stand only once.

What was measured:
[1] = tested on: Cupriavidus metallidurans CML2; type: cell-based; conditions: for MIC: lowest concentration of heavy metal inhibiting growth of CML2
Source text: Note that the MIC values refer to the lowest concentration of each heavy metal required to inhibit the growth of Cupriavidus metallidurans CML2.

[2] = tested on: rice seedling; test: Rice seedling root and shoot growth; type: in vivo; conditions: 14-day cultivation, cadmium alone
Source text: FIG. 7A-7C are schematic diagrams illustrating an effect of Cupriavidus metallidurans CML2 inoculation on rice seedling growth and cadmium remediation. FIG. 7A illustrates the effects of Cupriavidus metallidurans CML2 on rice seedling morphology; FIG. 7B illustrates the effects of Cupriavidus metallidurans CML2 on relative lengths of the root and shoot under different conditions. C: control, treated with sterile NB medium; CML2: treated with strain CML2; Cd: treated with Cd^2+; CML2+Cd: treated with both CML2 and Cd^2+; FIG. 7C illustrates the effects of Cupriavidus metallidurans CML2 on cadmium accumulation in rice seedling roots and shoots; data represents means±SEM; different letters (a or b) above the columns indicate significant differences between the three groups using one-way ANOVA at P<0.05; “***” indicates statistically significant differences according to a t-test, P<0.001.
To assess the impact of strain CML2 as a facilitator for plant growth and a cadmium remediation agent, Embodiment 8 conducted an analysis on the relative lengths of rice roots and shoots as well as cadmium concentrations, under different treatments: control, Cupriavidus metallidurans CML2 (CML2), cadmium (Cd), and CML2+Cd (Simultaneous treatment with cadmium and CML2). The control group (C) consisted of rice plants cultured in a sterile nutrient solution.

Compound	tolerance of CML2 to heavy metal [1]	MIC [1] [mM]	inhibition of rice root and shoot growth compared to control [2]
[Cd+2] [Cadmium (Cd^2+), Cadmium]	13 mM and 2400 mg/L	13.1	approximately 89%
[Ni+2] [Nickel (Ni^2+), Nickel]		2.5	
[Cu+2] [Copper (Cu^2+), Copper]		2.0	
Mercury [Mercury (Hg^2+)]	0.03 mM	0.03	
[Se+4] [Selenium (Se^4+), Selenium]		45	
[Mn+2] [Manganese (Mn^2+), Manganese]	110 mM	110	
[Zn+2] [Zinc (Zn^2+), Zinc]		20	
